In ChEMBL document CHEMBL1145534 (2007):
Values after ≈ are worked out from the molar mass of the structure shown.

How the values were obtained:
Type in all cases: functional
Corynebacterium sp. [1] = assay: Antimicrobial activity against Corynebacterium spp. at 0.25 ug/ml by broth microdilution method
Streptococcus equinus [2] = assay: Antimicrobial activity against viridans group Streptococcus bovis at 0.12 ug/ml by broth microdilution method
[3] = tested on: Streptococcus constellatus; assay: Antimicrobial activity against viridans group Streptococcus constellatus at 1 ug/ml by broth microdilution method
[4] = tested on: Streptococcus parasanguinis; assay: Antimicrobial activity against viridans group Streptococcus parasanguis at 0.12 ug/ml by broth microdilution method
[5] = tested on: Corynebacterium amycolatum; assay: Antimicrobial activity against Corynebacterium amycolatum at 0.25 ug/ml by broth microdilution method
Corynebacterium jeikeium [6] = assay: Antimicrobial activity against Corynebacterium jeikeium at 0.5 ug/ml by broth microdilution method
Enterococcus raffinosus [7] = assay: Antimicrobial activity against Enterococcus raffinosus at 2 ug/ml by broth microdilution method
Streptococcus salivarius [8] = assay: Antimicrobial activity against viridans group Streptococcus salivarius at 0.12 ug/ml by broth microdilution method
Enterococcus raffinosus [9] = assay: Antimicrobial activity against Enterococcus raffinosus at 0.25 ug/ml by broth microdilution method
Streptococcus mitis [10] = assay: Antimicrobial activity against viridans group Streptococcus mitis at 0.25 ug/ml by broth microdilution method
Aerococcus [11] = assay: Antimicrobial activity against Aerococcus spp. at 0.25 ug/ml by broth microdilution method
Streptococcus anginosus [12] = assay: Antimicrobial activity against viridans group Streptococcus anginosus by broth microdilution method
Enterococcus hirae = assay: Antimicrobial activity against Enterococcus hirae at 0.5 ug/ml by broth microdilution method
Rothia mucilaginosa [13] = assay: Antimicrobial activity against Rothia mucilaginosa at 1 ug/ml by broth microdilution method
Enterococcus durans [14] = assay: Antimicrobial activity against Enterococcus durans by broth microdilution method
Streptococcus sanguinis [15] = assay: Antimicrobial activity against viridans group Streptococcus sanguinis at 0.25 ug/ml by broth microdilution method
Streptococcus [16] = assay: Antimicrobial activity against beta hemolytic Streptococci group G at 0.12 ug/ml by broth microdilution method
[17] = tested on: Enterococcus casseliflavus; assay: Antimicrobial activity against Enterococcus casseliflavus at 4 ug/ml by broth microdilution method
Aerococcus [18] = assay: Antimicrobial activity against Aerococcus spp. at 2 ug/ml by broth microdilution method
[19] = tested on: Streptococcus vestibularis; assay: Antimicrobial activity against viridans group Streptococcus vestibularis by broth microdilution method
Aerococcus [20] = assay: Antimicrobial activity against Aerococcus spp. at 1 ug/ml by broth microdilution method
Streptococcus mutans = assay: Antimicrobial activity against viridans group Streptococcus mutans at <= 0.06 ug/ml by broth microdilution method
Bacillus cereus [21] = assay: Antimicrobial activity against Bacillus cereus at 1 ug/ml by broth microdilution method
Listeria monocytogenes = assay: Antimicrobial activity against Listeria monocytogenes at 1 ug/ml by broth microdilution method
[22] = tested on: Corynebacterium pseudodiphtheriticum; assay: Antimicrobial activity against Corynebacterium pseudodiphtheriticum at 0.5 ug/ml by broth microdilution method
[23] = tested on: Enterococcus casseliflavus; assay: Antimicrobial activity against Enterococcus casseliflavus at 0.25 ug/ml by broth microdilution method
Rothia mucilaginosa [24] = assay: Antimicrobial activity against Rothia mucilaginosa at 0.25 ug/ml by broth microdilution method
Enterococcus raffinosus [25] = assay: Antimicrobial activity against Enterococcus raffinosus at 0.5 ug/ml by broth microdilution method
Corynebacterium jeikeium [26] = assay: Antimicrobial activity against Corynebacterium jeikeium at <= 0.06 ug/ml by broth microdilution method
Streptococcus equinus [27] = assay: Antimicrobial activity against viridans group Streptococcus bovis at 1 ug/ml by broth microdilution method
Streptococcus sanguinis [28] = assay: Antimicrobial activity against viridans group Streptococcus sanguinis at 0.12 ug/ml by broth microdilution method
Streptococcus salivarius [29] = assay: Antimicrobial activity against viridans group Streptococcus salivarius by broth microdilution method
Enterococcus durans [30] = assay: Antimicrobial activity against Enterococcus durans at <= 0.06 ug/ml by broth microdilution method
Bacillus cereus [31] = assay: Antimicrobial activity against Bacillus cereus at <= 0.06 ug/ml by broth microdilution method
Streptococcus [32] = assay: Antimicrobial activity against beta hemolytic Streptococci group G at 0.25 ug/ml by broth microdilution method
Streptococcus anginosus [33] = assay: Antimicrobial activity against viridans group Streptococcus anginosus at <= 0.06 ug/ml by broth microdilution method
Bacillus sp. = assay: Antimicrobial activity against Bacillus spp. at 0.12 ug/ml by broth microdilution method; settings: Bacillus sp. (in: firmicutes)
Streptococcus sanguinis [34] = assay: Antimicrobial activity against viridans group Streptococcus sanguinis at 1 ug/ml by broth microdilution method
Streptococcus mitis [35] = assay: Antimicrobial activity against viridans group Streptococcus mitis at 0.12 ug/ml by broth microdilution method
Streptococcus [36] = assay: Antimicrobial activity against beta hemolytic Streptococcus group C at 0.12 ug/ml by broth microdilution method
Corynebacterium striatum [37] = assay: Antimicrobial activity against Corynebacterium striatum at 0.12 ug/ml by broth microdilution method
Enterococcus avium [38] = assay: Antimicrobial activity against Enterococcus avium at 0.12 ug/ml by broth microdilution method
[39] = tested on: Streptococcus intermedius; assay: Antimicrobial activity against viridans group Streptococcus intermedius at 0.5 ug/ml by broth microdilution method
Streptococcus oralis [40] = assay: Antimicrobial activity against viridans group Streptococcus oralis at by broth microdilution method
Streptococcus sanguinis [41] = assay: Antimicrobial activity against viridans group Streptococcus sanguinis at 2 ug/ml by broth microdilution method
Aerococcus [42] = assay: Antimicrobial activity against Aerococcus spp. by broth microdilution method
Corynebacterium sp. [43] = assay: Antimicrobial activity against Corynebacterium spp. at 2 ug/ml by broth microdilution method
[44] = tested on: Streptococcus vestibularis; assay: Antimicrobial activity against viridans group Streptococcus vestibularis at 1 ug/ml by broth microdilution method
Streptococcus salivarius [45] = assay: Antimicrobial activity against viridans group Streptococcus salivarius at 1 ug/ml by broth microdilution method
[46] = tested on: Enterococcus casseliflavus; assay: Antimicrobial activity against Enterococcus casseliflavus by broth microdilution method
Enterococcus avium [47] = assay: Antimicrobial activity against Enterococcus avium at 0.5 ug/ml by broth microdilution method
Enterococcus durans [48] = assay: Antimicrobial activity against Enterococcus durans at 2 ug/ml by broth microdilution method
Bacillus cereus [49] = assay: Antimicrobial activity against Bacillus cereus at 0.5 ug/ml by broth microdilution method
Corynebacterium striatum [50] = assay: Antimicrobial activity against Corynebacterium striatum at 0.5 ug/ml by broth microdilution method
Aerococcus [51] = assay: Antimicrobial activity against Aerococcus spp. at 0.5 ug/ml by broth microdilution method
Streptococcus oralis [52] = assay: Antimicrobial activity against viridans group Streptococcus oralis at 0.12 ug/ml by broth microdilution method

Q: Which results are given for `CC(=O)NC[C@H]1CN(c2ccc(N3CCOCC3)c(F)c2)C(=O)O1` [LINEZOLID]?
A: inhibition at 0.25 µg/mL (Corynebacterium sp. [1]): 68.2%; inhibition at 0.12 µg/mL (Streptococcus equinus [2]): 0%; inhibition at 1 µg/mL [3]: 98.9%; inhibition at 0.12 µg/mL [4]: 0%; inhibition at 0.25 µg/mL [5]: 100%; inhibition at 0.5 µg/mL (Corynebacterium jeikeium [6]): 98.3%; inhibition at 2 µg/mL (Enterococcus raffinosus [7]): 100%; inhibition at 0.12 µg/mL (Streptococcus salivarius [8]): 1.1%; inhibition at 0.25 µg/mL (Enterococcus raffinosus [9]): 0%; inhibition at 0.25 µg/mL (Streptococcus mitis [10]): 4.4%; inhibition at 0.25 µg/mL (Aerococcus [11]): 4.5%; MIC50 (Streptococcus anginosus [12]): 1 µg/mL (≈ 2.96 µM); MIC90 (Streptococcus anginosus [12]): 1 µg/mL (≈ 2.96 µM); inhibition at 0.5 µg/mL (Enterococcus hirae): 0%; inhibition at 1 µg/mL (Rothia mucilaginosa [13]): 94.4%; MIC50 (Enterococcus durans [14]): 2 µg/mL (≈ 5.93 µM); MIC90 (Enterococcus durans [14]): 2 µg/mL (≈ 5.93 µM); inhibition at 0.25 µg/mL (Streptococcus sanguinis [15]): 4.2%; inhibition at 0.12 µg/mL (Streptococcus [16]): 0.5%; inhibition at 4 µg/mL [17]: 100%; inhibition at 2 µg/mL (Aerococcus [18]): 100%; MIC50 [19]: 1 µg/mL (≈ 2.96 µM); MIC90 [19]: 1 µg/mL (≈ 2.96 µM); inhibition at 1 µg/mL (Aerococcus [20]): 63.6%; Inhibition (Streptococcus mutans): 0%; inhibition at 1 µg/mL (Bacillus cereus [21]): 98.3%; inhibition at 1 µg/mL (Listeria monocytogenes): 29.2%; inhibition at 0.5 µg/mL [22]: 90.9%; inhibition at 0.25 µg/mL [23]: 0%; inhibition at 0.25 µg/mL (Rothia mucilaginosa [24]): 16.7%; inhibition at 0.5 µg/mL (Enterococcus raffinosus [25]): 0%; Inhibition (Corynebacterium jeikeium [26]): 1.7%; inhibition at 1 µg/mL (Streptococcus equinus [27]): 87.2%; inhibition at 0.12 µg/mL (Streptococcus sanguinis [28]): 0.7%; MIC50 (Streptococcus salivarius [29]): 1 µg/mL (≈ 2.96 µM); MIC90 (Streptococcus salivarius [29]): 1 µg/mL (≈ 2.96 µM); Inhibition (Enterococcus durans [30]): 0%; Inhibition (Bacillus cereus [31]): 1.7%; inhibition at 0.25 µg/mL (Streptococcus [32]): 0.8%; Inhibition (Streptococcus anginosus [33]): 2.9%; inhibition at 0.12 µg/mL (Bacillus sp.): 0.7%; inhibition at 1 µg/mL (Streptococcus sanguinis [34]): 97.9%; inhibition at 0.12 µg/mL (Streptococcus mitis [35]): 1.2%; inhibition at 0.12 µg/mL (Streptococcus [36]): 3%; inhibition at 0.12 µg/mL (Corynebacterium striatum [37]): 12%; inhibition at 0.12 µg/mL (Enterococcus avium [38]): 0%; inhibition at 0.5 µg/mL [39]: 24.2%; MIC50 (Streptococcus oralis [40]): 1 µg/mL (≈ 2.96 µM); MIC90 (Streptococcus oralis [40]): 1 µg/mL (≈ 2.96 µM); inhibition at 2 µg/mL (Streptococcus sanguinis [41]): 100%; MIC50 (Aerococcus [42]): 1 µg/mL (≈ 2.96 µM); MIC90 (Aerococcus [42]): 2 µg/mL (≈ 5.93 µM); inhibition at 2 µg/mL (Corynebacterium sp. [43]): 100%; inhibition at 1 µg/mL [44]: 100%; inhibition at 1 µg/mL (Streptococcus salivarius [45]): 98.9%; MIC50 [46]: 2 µg/mL (≈ 5.93 µM); MIC90 [46]: 2 µg/mL (≈ 5.93 µM); inhibition at 0.5 µg/mL (Enterococcus avium [47]): 4.3%; inhibition at 2 µg/mL (Enterococcus durans [48]): 100%; inhibition at 0.5 µg/mL (Bacillus cereus [49]): 30%; inhibition at 0.5 µg/mL (Corynebacterium striatum [50]): 100%; inhibition at 0.5 µg/mL (Aerococcus [51]): 31.8%; inhibition at 0.12 µg/mL (Streptococcus oralis [52]): 0.7%
